The source of these data is patent publication US5019576A, “2-substituted N,N'-ditrimethoxybenzoyl piperazines and therapeutic compositions containing them” (Societe de Conseils de Recherches et d'Applications …, priority 1989, dated 1991).

Each structure is given as a SMILES string.

One test has as its target T1, PAF receptors (Oryctolagus cuniculus, UniProt G1TEI7).
T1 construct: from tissue; host or cells: rabbit platelet homogenate
As to the kind of experiment: Binding studies on a rabbit platelet homogenate (3[H]-PAF). The source says:
This activity was evidenced by binding studies on a rabbit platelet homogenate. In this preparation indeed, those derivatives inhibit the specific bond of ^3 [H]--PAF, whereas they are without significative effect on the binding of the appropriate ligands on tissue homogenates rich in benzodiazepinic (central and peripheral), histaminergic (H1 and H2) and adrenergic (α1, α2, β2, β3) receptors, to angiotensine II or to ANF. Their affinity is therefore characteristic of PAF receptors.

Test [1] relates to platelet aggregation induced by 2.5 nm of PAF. As to the kind of experiment: Inhibition of PAF-induced platelet aggregation on platelet rich plasma (Born method). The class given is cell-based, New Zealand rabbits. The conditions noted are these: Oryctolagus cuniculus; rabbit platelet rich plasma, 2.5 nm PAF. Here is the method: 1. --Inhibition of the platelets aggregation on New Zealand Rabbits
The experimentation was conducted on platelets with plasma of New Zealand rabbits.
Blood samples were taken from auricular artery and placed in a citrate buffer (3.8%; pH 7.4); blood was further centrifugated for 15 mn at 1200 rpm.
The tested sample was prepared in DMSO, then poured on platelets rich plasma for 1 mn, then a dose of 2.5 nm of PAF was added.
The determination is made on a Cronolog Coultronics apparatus which determines the transmission percentage corresponding to the maximum height of the peak before the desaggregation.
The percentage of variation of the inhibition with respect to the transmission percentage is calculated (control: pure DMSO).
This method was described in detail in LABORATORY INVESTIGATIONS, Vol. 41, No. 3, p. 275, 1979, JEAN-PIERRE CAZENAVE, Dr. MED., JACQUES BENVENISTE, DR. MED., AND J. FRASER MUSTARD, M. D., "Aggregation of rabbits platelets by platelet-activating factor is independent of the release reaction and the arachidonate pathway and inhibited by membrane-active drugs".

T1 sequence (G1TEI7 1-342): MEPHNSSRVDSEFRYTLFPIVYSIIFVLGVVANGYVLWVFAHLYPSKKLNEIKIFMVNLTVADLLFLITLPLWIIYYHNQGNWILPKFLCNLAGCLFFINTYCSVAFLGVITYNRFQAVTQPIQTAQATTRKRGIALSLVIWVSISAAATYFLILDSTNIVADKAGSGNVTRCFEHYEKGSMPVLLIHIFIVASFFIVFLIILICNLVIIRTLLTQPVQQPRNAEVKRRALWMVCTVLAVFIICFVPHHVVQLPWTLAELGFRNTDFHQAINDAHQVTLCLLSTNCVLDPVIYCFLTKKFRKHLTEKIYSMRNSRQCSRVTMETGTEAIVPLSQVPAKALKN

For orientation: IC50 means the concentration that gives 50% inhibition. Turning to `CCCCCCCCC1CN(C(=O)c2cc(OC)c(OC)c(OC)c2)CCN1C(=O)c1cc(OC)c(OC)c(OC)c1` (centres unmarked) [Example 1, N,N'-bis-(3',4',5'-trimethoxybenzoyl)-2-n-octyl piperazine], the concentration for half-maximal inhibition (IC50) worked out at 62 nM on PAF receptors and 120 nM in test [1].

Take `COc1cc(C(=O)N2CCN(C(=O)c3cc(OC)c(OC)c(OC)c3)C(CCC(C)(C)C)C2)cc(OC)c1OC` (centres unmarked) [Example 2, N,N'-bis-(3',4',5'-trimethoxybenzoyl) 2-(3",3"-dimethyl) -butyl piperazine]: the IC50 worked out at 250 nM on PAF receptors and 710 nM in test [1].

As to `COc1cc(C(=O)N2CCN(C(=O)c3cc(OC)c(OC)c(OC)c3)C(C)C2)cc(OC)c1OC` (centres unmarked) [Example 3, N,N'-bis-(3',4',5'-trimethoxybenzoyl) 2-methyl piperazine], the values for the half-inhibitory concentration (IC50) (at PAF receptors; in test [1]) were 670 nM and 560 nM, respectively.

Regarding `CCCCCC1CN(C(=O)c2cc(OC)c(OC)c(OC)c2)CCN1C(=O)c1cc(OC)c(OC)c(OC)c1` (centres unmarked) [Example 4, N,N'-bis-(3',4',5'-trimethoxybenzoyl) 2-n-pentyl piperazine], the IC50 at PAF receptors turned out to be 32 nM; in test [1], 190 nM.

On to `CCCCCCCCCCCCCCCC1CN(C(=O)c2cc(OC)c(OC)c(OC)c2)CCN1C(=O)c1cc(OC)c(OC)c(OC)c1` (centres unmarked) [Example 5, N,N'-bis-(3',4',5'-trimethoxybenzoyl) 2-n-pentadecyl piperazine], for which the IC50 was 6300 nM on PAF receptors and 5800 nM in test [1].

For `CCCCCCCCCCCCCCCCCCCC1CN(C(=O)c2cc(OC)c(OC)c(OC)c2)CCN1C(=O)c1cc(OC)c(OC)c(OC)c1` (centres unmarked) [Example 6, N,N'-bis-(3',4',5'-trimethoxybenzoyl) 2-n-nonadecyl piperazine], the values for the IC50 (at PAF receptors; in test [1]) were 4700 nM and 2400 nM, respectively.

Take `COc1cc(C(=O)N2CCN(C(=O)c3cc(OC)c(OC)c(OC)c3)C(CCC3CCCCC3)C2)cc(OC)c1OC` (centres unmarked) [Example 7, N,N'-bis-(3',4',5'-trimethoxybenzoyl)-2-n-(cyclohexylethyl) piperazine]: the IC50 at PAF receptors was found to be 740 nM; in test [1], 430 nM.

`COc1cc(CCC2CN(C(=O)c3cc(OC)c(OC)c(OC)c3)CCN2C(=O)c2cc(OC)c(OC)c(OC)c2)cc(OC)c1OC` (centres unmarked) [Example 8, N,N'-bis-(3',4',5'-trimethoxybenzoyl)-2-n-(3,4,5-(trimethoxy)phenethyl) piperazine]: the results for the IC50 (at PAF receptors; in test [1]) were 38 nM and 71 nM, respectively.

Take `COc1cc(C(=O)N2CCN(C(=O)c3cc(OC)c(OC)c(OC)c3)C(Cc3ccccc3)C2)cc(OC)c1OC` (centres unmarked) [Example 9, N,N'-bis-(3',4',5'-trimethoxybenzoyl)-2-n-(benzyl) piperazine]: the IC50 at PAF receptors is 730 nM; in test [1] it was 410 nM.

Regarding `COc1cc(C(=O)N2CCN(C(=O)c3cc(OC)c(OC)c(OC)c3)C(CCc3ccccc3)C2)cc(OC)c1OC` (centres unmarked) [Example 10, N,N'-bis-(3',4',5'-trimethoxybenzoyl)-2-n-(phenethyl) piperazine], the IC50 on PAF receptors was found to be 4100 nM; in test [1], 5400 nM.

On to `COc1cc(C(=O)N2CCN(C(=O)c3cc(OC)c(OC)c(OC)c3)C(CCCc3ccccc3)C2)cc(OC)c1OC` (centres unmarked) [Example 11, N,N'-bis-(3',4',5'-trimethoxybenzoyl)-2-n-(phenyl-n-propyl) piperazine], for which the IC50 at PAF receptors came to 31 nM; in test [1], 11 nM.

As for `COc1ccc(CCC2CN(C(=O)c3cc(OC)c(OC)c(OC)c3)CCN2C(=O)c2cc(OC)c(OC)c(OC)c2)cc1` (centres unmarked) [Example 12, N,N'-bis-(3',4',5'-trimethoxybenzoyl)-2-n-(p-(methoxy)phenethyl) piperazine], the IC50 is 60 nM on PAF receptors and 62 nM in test [1].

For the compound `COc1cc(C(=O)N2CCN(C(=O)c3cc(OC)c(OC)c(OC)c3)C(CCCc3ccc(C)cc3)C2)cc(OC)c1OC` (centres unmarked) [Example 13, N,N'-bis-(3',4',5'-trimethoxybenzoyl)-2-n-(p-(methyl)phenylpropyl) piperazine], the IC50 on PAF receptors is 140 nM; in test [1], 350 nM.

`COc1cc(C(=O)N2CCN(C(=O)c3cc(OC)c(OC)c(OC)c3)C(CCc3ccc(Cl)cc3)C2)cc(OC)c1OC` (centres unmarked) [Example 14, N,N'-bis-(3',4',5'-trimethoxybenzoyl)-2-n-(p-(chloro)phenethyl) piperazine]: the concentration for half-maximal inhibition (IC50) on PAF receptors was 450 nM; in test [1], 170 nM.

Turning to `COc1cc(C(=O)N2CCN(C(=O)c3cc(OC)c(OC)c(OC)c3)C(CCc3cccc(Cl)c3Cl)C2)cc(OC)c1OC` (centres unmarked) [Example 15, N,N'-bis-(3',4',5,-trimethoxybenzoyl)-2-n-(2,3-(dichloro)phenethyl) piperazine], the concentration for half-maximal inhibition (IC50) on PAF receptors was determined as 680 nM; in test [1] it was 370 nM.

On to `C=CCc1ccc(CCC2CN(C(=O)c3cc(OC)c(OC)c(OC)c3)CCN2C(=O)c2cc(OC)c(OC)c(OC)c2)cc1` (centres unmarked) [Example 16, N,N'-bis-(3',4',5'-trimethoxybenzoyl)-2-n-(p-(allyl)phenethyl) piperazine], for which the IC50 came out at 530 nM on PAF receptors and 290 nM in test [1].
